Test results: ChEMBL document CHEMBL1146425, “Two new antiprotozoal 5-methylcoumarins from Vernonia brachycalyx” (J Nat Prod, 1997); call rule not given here

How the values were obtained:
Plasmodium falciparum [1] = experiment: Antiplasmodial activity against chloroquine-resistant Plasmodium falciparum Dd2 by [G-3H]hypoxanthine uptake; format: functional, organism-based
[2] = Inhibition of phytohemagglutininin A-induced human lymphocyte proliferation assessed as radiolabeled thymidine uptake; format: cell-based
Plasmodium falciparum [3] = experiment: Antiplasmodial activity against chloroquine-sensitive Plasmodium falciparum 3D7 by [G-3H]hypoxanthine uptake; format: functional, organism-based
[4] = Inhibition of phytohemagglutininin A-induced human lymphocyte proliferation assessed as radiolabeled thymidine uptake at < 300 uM; format: cell-based
Leishmania major = experiment: Antileishmanial activity against Leishmania major promastigotes assessed as inhibition of [3H]thymidine incorporation after 18 hrs by scintillation counting; format: functional, organism-based

Row | SMILES | IC50 (Plasmodium falciparum [1]) | IC50 [2] | IC50 (Plasmodium falciparum [3]) | Activity [4] | IC50 (Leishmania major)
1 | Cc1cccc2oc(=O)c3c(c12)O[C@@H](C)[C@@]3(C)CC(=O)[C@@H]1OC1(C)C | 54 µM | 0.313 mM | 160 µM | Not Active | 37 µM
2 | Cc1cccc2oc(=O)c3c(c12)O[C@H](C)[C@@]3(C)CC(=O)[C@@H]1OC1(C)C [CYCLOISOBRACHYCOUMARINONE EPOXIDE] | 54 µM | 1.81 mM | 111 µM |  | 13.4 µM
